Consider 22 molecules from patent publication US10266495B2, “Phenyl quinolinone derivatives as mutant-isocitrate dehydrogenase inhibitors” (FORMA TM2, Inc., priority 2014, dated 2019).

For orientation: IC50 means the point on the concentration scale where inhibition reaches its midpoint.

Molecules are shown by their SMILES.

Experiment [1] addresses IDH1-R132H recombinant protein (Homo sapiens, UniProt O75874, R132H). Kind of experiment: IDH1-R132H enzymatic assay (NADPH consumption, diaphorase/resazurin readout). As to conditions: read-out: Enzyme IDH1 R132H IC50 Range. It is filed as biochemical. The protocol:
(§1) Assays were performed in a 384-well black plate. An aliquot of 250 nL of compound was incubated with 10 μL of 30 nM IDH1-R132H or 10 nM IDH1-R132C recombinant protein in assay buffer (50 mM Tris pH=7.5, 150 mM NaCl, 5 mM MgCl2, 0.1% (w/v) Bovine Serum Albumin, and 0.01% Triton X-100) in each well at 25° C. for 15 minutes. After the plate was centrifuged briefly, an aliquot of 10 μL of 2 mM α-ketoglutarate and 20 μM NADPH solution prepared in assay buffer was then added to each well and the reaction was maintained at 25° C. for 45 minutes. An aliquot of 10 μL of diaphorase solution (0.15 U/mL diaphorase and 30 μM Resazurin in assay buffer) was added to each well. […] The IC50 of a given compound was calculated by fitting the dose response curve of inhibition of NADPH consumption at a given concentration with the four parameter logistic equation.
On the technique in general: The colour change of resazurin is a common sign of viable cells or microbes.

The target in experiment [2] is IDH1-R132C recombinant protein (Homo sapiens, UniProt O75874, R132C). Kind of experiment: IDH1-R132C enzymatic assay (NADPH consumption, diaphorase/resazurin readout). It is filed as biochemical. The settings on record: read-out: Enzyme IDH1 R132C IC50 Range. The protocol:
as §1

Sequence of IDH1-R132C recombinant protein (O75874 whole entry R132C): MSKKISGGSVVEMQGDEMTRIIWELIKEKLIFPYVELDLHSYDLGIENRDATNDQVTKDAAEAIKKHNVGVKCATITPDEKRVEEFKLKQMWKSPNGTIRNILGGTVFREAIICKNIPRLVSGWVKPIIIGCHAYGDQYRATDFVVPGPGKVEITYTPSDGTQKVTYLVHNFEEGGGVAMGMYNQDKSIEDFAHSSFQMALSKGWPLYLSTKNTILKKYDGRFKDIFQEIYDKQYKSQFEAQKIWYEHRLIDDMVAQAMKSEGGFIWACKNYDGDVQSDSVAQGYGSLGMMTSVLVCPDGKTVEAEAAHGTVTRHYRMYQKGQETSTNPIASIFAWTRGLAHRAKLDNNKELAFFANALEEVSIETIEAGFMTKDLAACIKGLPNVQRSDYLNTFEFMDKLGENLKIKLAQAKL
Sequence of IDH1-R132H recombinant protein (O75874 whole entry R132H): as the sequence (O75874 whole entry R132C) above, with C132H counted along it

With `COc1cc(NCc2cc3cc(Cl)c(OCc4ccccn4)cc3[nH]c2=O)ccc1C#N` [Compound I-58, 4-({[6-chloro-2-oxo-7-(pyridin-2-ylmethoxy)-1,2-dihydroquinolin-3-yl]methyl}amino)-2-methoxybenzonitrile], the IC50 in experiment [1] fell in the range of 10 to 100 nM; in experiment [2], 100 to 1000 nM. In the same order, the values of `COc1cc(NCc2cc3cc(Cl)cc(OC)c3[nH]c2=O)ccc1C#N` [Compound I-97, 4-{[(6-chloro-8-methoxy-2-oxo-1,2-dihydroquinolin-3-yl)methyl]amino}-2-methoxybenzonitrile] are 100 to 1000 nM and greater than 1000 nM. Take `Cc1nnnn1-c1ccc(NCc2cc3cc(Cl)ccc3[nH]c2=O)cc1` [Compound I-38, 6-chloro-3-({[4-(5-methyl-1H-1,2,3,4-tetrazol-1-yl)phenyl]amino}methyl)-1,2-dihydroquinolin-2-one]: the IC50 in experiment [1] is 100 to 1000 nM; in experiment [2], greater than 1000 nM. Take `COc1cc(NCc2cc3cc(C)ccc3[nH]c2=O)ccc1-n1cnnn1` [Compound I-16, 3-({[3-methoxy-4-(1H-1,2,3,4-tetrazol-1-yl)phenyl]amino}methyl)-6-methyl-1,2-dihydroquinolin-2-one]: the concentration for half-maximal inhibition (IC50) is 100 to 1000 nM in experiment [1] and greater than 1000 nM in experiment [2].

As for `COc1cc(NCc2cc3cc(Cl)c(OCCCN(C)C)cc3[nH]c2=O)ccc1C#N` [Compound I-82, 4-[({6-chloro-7-[3-(dimethylamino)propoxy]-2-oxo-1,2-dihydroquinolin-3-yl}methyl)amino]-2-methoxybenzonitrile], the IC50 in experiment [1] is 100 to 1000 nM; in experiment [2], greater than 1000 nM. In the same order, the values of `COc1cc(NCc2cc3cc(Cl)c(OCCN4CCN(C)CC4)cc3[nH]c2=O)ccc1C#N` [Compound I-88, 4-[({6-chloro-7-[2-(4-methylpiperazin-1-yl)ethoxy]-2-oxo-1,2-dihydroquinolin-3-yl}methyl)amino]-2-methoxybenzonitrile] are 10 to 100 nM and greater than 1000 nM. For the molecule `Cc1cc(NCc2cc3cc(Cl)ccc3[nH]c2=O)ccc1C#N` [Compound I-36, 4-{[(6-chloro-2-oxo-1,2-dihydroquinolin-3-yl)methyl]amino}-2-methylbenzonitrile], the figures for the IC50 in experiment [1] and in experiment [2] were 100 to 1000 nM and greater than 1000 nM, respectively.

Take `COc1cc(NCc2cc3cc(C(C)(C)C)ccc3[nH]c2=O)ccc1C#N` [Compound I-24, 4-{[(6-tert-butyl-2-oxo-1,2-dihydroquinolin-3-yl)methyl]amino}-2-methoxybenzonitrile]: the IC50 in experiment [1] is 10 to 100 nM; in experiment [2], greater than 1000 nM.

Turning to `COc1cc(NCc2cc3cc(Cl)c(OCC(O)CN4CCOCC4)cc3[nH]c2=O)ccc1C#N` (stereo not shown) [Compound I-59, 4-[({6-chloro-7-[2-hydroxy-3-(morpholin-4-yl)propoxy]-2-oxo-1,2-dihydroquinolin-3-yl}methyl)amino]-2-methoxybenzonitrile], the IC50 in experiment [1] is 100 to 1000 nM; in experiment [2] it was greater than 1000 nM. As for `COc1cc(NCc2cc3cc(Cl)c(OCC4CCOCC4)cc3[nH]c2=O)ccc1C#N` [Compound I-63, 4-({[6-chloro-7-(oxan-4-ylmethoxy)-2-oxo-1,2-dihydroquinolin-3-yl]methyl}amino)-2-methoxybenzonitrile], the half-maximal inhibitory concentration (IC50) in experiment [1] is 10 to 100 nM; in experiment [2], greater than 1000 nM. In the case of `COc1cc(NCc2cc3cc(Cl)c(OC[C@H]4CCOC4)cc3[nH]c2=O)ccc1C#N` [Compound I-65, 4-[({6-chloro-2-oxo-7-[(3S)-oxolan-3-ylmethoxy]-1,2-dihydroquinolin-3-yl}methyl)amino]-2-methoxybenzonitrile], the IC50 was 10 to 100 nM in experiment [1] and greater than 1000 nM in experiment [2].

In the case of `COc1cc(NCc2cc3cc(Cl)c(OCCCN4CCCC4)cc3[nH]c2=O)ccc1C#N` [Compound I-83, 4-[({6-chloro-2-oxo-7-[3-(pyrrolidin-1-yl)propoxy]-1,2-dihydroquinolin-3-yl}methyl)amino]-2-methoxybenzonitrile], the 50% inhibitory concentration (IC50) in experiment [1] was 10 to 100 nM; in experiment [2] it was greater than 1000 nM. Consider `COc1cc(NCc2cc3cc(Cl)c(OCCc4ccncc4)cc3[nH]c2=O)ccc1C#N` [Compound I-81, 4-[({6-chloro-2-oxo-7-[2-(pyridin-4-yl)ethoxy]-1,2-dihydroquinolin-3-yl}methyl)amino]-2-methoxybenzonitrile], for which the half-inhibitory concentration (IC50) in experiment [1] is 10 to 100 nM; in experiment [2], greater than 1000 nM. For `COc1cc(NCc2cc3cc(Cl)c(OC4CCN(C)CC4)cc3[nH]c2=O)ccc1C#N` [Compound I-66, 4-[({6-chloro-7-[(1-methylpiperidin-4-yl)oxy]-2-oxo-1,2-dihydroquinolin-3-yl}methyl)amino]-2-methoxybenzonitrile], the IC50 in experiment [1] was 10 to 100 nM; in experiment [2], greater than 1000 nM. Take `COc1cc(NCc2cc3cc(Cl)ccc3[nH]c2=O)ccc1-n1cnnn1` [Compound I-33, 6-chloro-3-({[3-methoxy-4-(1H-1,2,3,4-tetrazol-1-yl)phenyl]amino}methyl)-1,2-dihydroquinolin-2-one]: the values for the IC50 in experiment [1] and in experiment [2] were 100 to 1000 nM and greater than 1000 nM, respectively.

Regarding `COc1cc(NCc2cc3cc(Cl)c(OCCc4ccccn4)cc3[nH]c2=O)ccc1C#N` [Compound I-80, 4-[({6-chloro-2-oxo-7-[2-(pyridin-2-yl)ethoxy]-1,2-dihydroquinolin-3-yl}methyl)amino]-2-methoxybenzonitrile], the concentration for half-maximal inhibition (IC50) in experiment [1] was 10 to 100 nM; in experiment [2], greater than 1000 nM. On to `COc1cc(NCc2cc3cc(Cl)c(OCCN(C)C)cc3[nH]c2=O)ccc1C#N` [Compound I-61, 4-[({6-chloro-7-[2-(dimethylamino)ethoxy]-2-oxo-1,2-dihydroquinolin-3-yl}methyl)amino]-2-methoxybenzonitrile], for which the half-inhibitory concentration (IC50) in experiment [1] was 10 to 100 nM; in experiment [2] it was greater than 1000 nM.

Consider `COc1cc2[nH]c(=O)c(CNc3ccc(C#N)c(OC)c3)cc2cc1Cl` [Compound I-21, 4-{[(6-chloro-7-methoxy-2-oxo-1,2-dihydroquinolin-3-yl)methyl]amino}-2-methoxybenzonitrile], for which the IC50 in experiment [1] and in experiment [2] was 100 to 1000 nM throughout. Regarding `COc1cc(NCc2cc3cc(Cl)c(OCCN4CCOCC4)cc3[nH]c2=O)ccc1C#N` [Compound I-60, 4-[({6-chloro-7-[2-(morpholin-4-yl)ethoxy]-2-oxo-1,2-dihydroquinolin-3-yl}methyl)amino]-2-methoxybenzonitrile], the IC50 in experiment [2] was in the range of 100 to 1000 nM. Take `O=c1[nH]c2ccc(Cl)cc2cc1CNc1ccc(-n2ccnc2)cc1` [Compound I-39, 6-chloro-3-({[4-(1H-imidazol-1-yl)phenyl]amino}methyl)-1,2-dihydroquinolin-2-one]: the IC50 in experiment [1] is greater than 1000 nM. The same measure, in the same setting: the value for `COc1cc(NCc2cc3cc(C)c(C)cc3[nH]c2=O)ccc1-n1cnnn1` [Compound I-20, 3-({[3-methoxy-4-(1H-1,2,3,4-tetrazol-1-yl)phenyl]amino}methyl)-6,7-dimethyl-1,2-dihydroquinolin-2-one] was 100 to 1000 nM; that for `CCOCCOc1cc2[nH]c(=O)c(CNc3ccc(C#N)c(OC)c3)cc2cc1Cl` [Compound I-93, 4-({[6-chloro-7-(2-ethoxyethoxy)-2-oxo-1,2-dihydroquinolin-3-yl]methyl}amino)-2-methoxybenzonitrile] was 100 to 1000 nM.
